Experimental data published in ChEMBL document CHEMBL1201862, “PubChem BioAssay data set” (2004).
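These data come from cells grown in 96-well plates and exposed to compound for 48 hours at five concentrations. GI50 is the concentration that inhibits growth by half.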 Active and inactive are the calls of the source. No stated cut-off is given here; in the data, active = GI50 up to about 1.1 µM and inactive = higher.

Legend:
Experiment in all cases: inhibition of tumour cell growth, NCI panel, 48 h
COLO 205 = tested on: COLO 205
IGROV-1 = tested on: IGROV-1
BT-549 = tested on: BT-549
M14 = tested on: M14
MDA-MB-231 = tested on: MDA-MB-231
NCI/ADR-RES = tested on: NCI/ADR-RES
OVCAR-3 = tested on: OVCAR-3
DU-145 = tested on: DU-145
MDA-N = tested on: MDA-N
SNB-19 = tested on: SNB-19
KM12 = tested on: KM12
SK-MEL-2 = tested on: SK-MEL-2
NCI-H23 = tested on: NCI-H23
TK-10 = tested on: TK-10
UO-31 = tested on: UO-31
ACHN = tested on: ACHN
EKVX = tested on: EKVX
OVCAR-5 = tested on: OVCAR-5
RPMI-8226 = tested on: RPMI-8226
UACC-62 = tested on: UACC-62

Measured: GI50

Cc1ccc(/C=C2/N/C(=N\N=C/C(O)C(O)C(O)C(O)CO)NC2=O)cc1 (configuration not stated)
inactive: COLO 205 > 100 µM | IGROV-1 > 100 µM | BT-549 > 100 µM | M14 > 100 µM | MDA-MB-231 > 100 µM | NCI/ADR-RES > 100 µM | OVCAR-3 > 100 µM | DU-145 > 100 µM | MDA-N > 100 µM | SNB-19 > 100 µM | KM12 > 100 µM | SK-MEL-2 > 100 µM | NCI-H23 > 100 µM | TK-10 > 100 µM | UO-31 > 100 µM | ACHN > 100 µM | EKVX > 100 µM | OVCAR-5 > 100 µM | RPMI-8226 > 100 µM

COC(=O)/C(C#N)=C1\NC(=O)CC(c2ccccc2)C1C#N (configuration not stated)
inactive: COLO 205 > 100 µM | IGROV-1 > 100 µM | BT-549 > 100 µM | M14 > 100 µM | MDA-MB-231 > 100 µM | NCI/ADR-RES > 100 µM | OVCAR-3 > 100 µM | DU-145 > 100 µM | MDA-N > 100 µM | SNB-19 > 100 µM | KM12 > 100 µM | SK-MEL-2 > 100 µM | UACC-62 > 100 µM | TK-10 > 100 µM | UO-31 > 100 µM | ACHN > 100 µM | EKVX > 100 µM | OVCAR-5 > 100 µM | RPMI-8226 > 100 µM

COc1ccccc1Cn1c2c(c3cc(O)ccc31)C(=O)c1ccccc1C2=O
inactive: COLO 205 61.9 µM | IGROV-1 16.6 µM | BT-549 > 100 µM | M14 > 100 µM | MDA-MB-231 12.4 µM | NCI/ADR-RES 11.3 µM | OVCAR-3 28.9 µM | DU-145 39.4 µM | MDA-N > 100 µM | SNB-19 27.1 µM | KM12 70.6 µM | SK-MEL-2 38.6 µM | UACC-62 17 µM | NCI-H23 20 µM | TK-10 72.8 µM | UO-31 48 µM | OVCAR-5 10.4 µM | RPMI-8226 15.3 µM

O=C1NC(c2c(Cl)cccc2Cl)Nc2ccccc21 (configuration not stated)
inactive: COLO 205 49.4 µM | IGROV-1 21.2 µM | BT-549 60 µM | M14 34.8 µM | MDA-MB-231 30.5 µM | NCI/ADR-RES 21.8 µM | OVCAR-3 50.1 µM | DU-145 29.2 µM | MDA-N 21.5 µM | SNB-19 71.3 µM | KM12 16.4 µM | SK-MEL-2 82.2 µM | UACC-62 37 µM | TK-10 > 100 µM | UO-31 > 100 µM | ACHN > 100 µM | EKVX 56 µM | OVCAR-5 94.4 µM | RPMI-8226 50.5 µM

CC(=O)OCC1OC(n2c(-c3ccccc3)c(/N=N/c3ccccc3)c(C)c(C#N)c2=S)C(OC(C)=O)C(OC(C)=O)C1OC(C)=O (configuration not stated)
inactive: COLO 205 > 100 µM | IGROV-1 > 100 µM | BT-549 > 100 µM | M14 > 100 µM | MDA-MB-231 > 100 µM | NCI/ADR-RES > 100 µM | OVCAR-3 > 100 µM | DU-145 > 100 µM | MDA-N > 100 µM | SNB-19 > 100 µM | KM12 > 100 µM | SK-MEL-2 > 100 µM | UACC-62 > 100 µM | NCI-H23 > 100 µM | TK-10 > 100 µM | UO-31 > 100 µM | ACHN > 100 µM | OVCAR-5 > 100 µM | RPMI-8226 > 100 µM

FC(F)(Sc1ncc[nH]1)c1nc2ccccc2o1
inactive: COLO 205 > 100 µM | IGROV-1 > 100 µM | BT-549 > 100 µM | M14 > 100 µM | MDA-MB-231 > 100 µM | NCI/ADR-RES > 100 µM | OVCAR-3 > 100 µM | DU-145 > 100 µM | MDA-N > 100 µM | KM12 > 100 µM | SK-MEL-2 > 100 µM | UACC-62 > 100 µM | NCI-H23 > 100 µM | TK-10 > 100 µM | UO-31 > 100 µM | ACHN > 100 µM | OVCAR-5 > 100 µM | RPMI-8226 > 100 µM
